The test relates to anti-EBV antibodies. As to the kind of experiment: ELISA with EBV control peptide, comparing antibody titers against HHV-8 and EBV. It is filed as binding, human. The procedure: Various control panels as well as control peptides were used to test the specificity of the HHV-8 antibody ELISA. Using an EBV control peptide (cf. table 2), analyses were carried out to compare antibody titers against HHV-8 and EBV (a closely related herpesvirus). In 56 out of 64 cases the observed antibody titers were at least 30% divergent; the EBV seroprevalence was 86% with HIV-positive patients and 72% with the controls.

For “S G S G Q E P P A P Q A P I (SGSGQEPPAPQAPI; Epstein-Barr virus) [EBV control peptide, control peptide, Epstein-Barr virus strain B95-8, EBNA 6, position 100695-100724, with SGSG spacer]”, the EBV seroprevalence is, setting by setting: (HIV-positive patients) 86%; (controls) 72%.

The values above are taken from patent publication US6669939B1, “(Poly)peptides which represent the epitopes of the human herpes virus type 8” (Biotrin International Properties Limited, priority 1998, dated 2003).
